From patent publication EP0231151A2, “Immunosuppressant agents” (priority 1986, dated 1987)
Where two headings read alike, the source gives them in different places.

Tests used:
[1] = target: 5-HT sensitive adenylate cyclase; experiment: Activation of 5-HT sensitive adenylate cyclase of the liver fluke (method of Markstein); type: biochemical; conditions: adenylate cyclase stimulated by serotonin
Source text: A group of compounds comprises compounds which are D₂ agonists without any antagonistic activity. Another group of compounds includes those compounds which are serotonin agonists, e.g. as indicated in standard in vitro binding tests and by activation of 5-HT sensitive adenylate cyclase of the liver fluke according to the method of R.Markstein, Neurochemical effects of some ergot derivatives: A basis for their antiparkinson actions. J.Neural transm 51:39, (1981).
Examples of such compounds include compound C and pergolide. Compound C, pergolide and 5-HT have efficacies of 90,80 and 100 respectively and pD₂ [log EC₅₀] of 6.9, 6.9 and 7.7 respectively in this test on adenylate cyclase stimulated by serotonin.

[2] = test system: basal serum prolactin levels; experiment: Lowering basal serum prolactin levels in the male rat (prolactin secretion inhibition); type: in vivo; conditions: read-out: ID50 after 4 hours
Source text: Many of the above mentioned compounds are published as prolactin secretion inhibitors, some of which are extremely potent and have long lasting activity. The potency of the compounds as prolactin secretion inhibitors can be determined in standard tests, e.g. by lowering basal serum prolactin levels in the male rat.
Results with representative compounds include:-

[3] = test system: adjuvant arthritis; experiment: Freund's adjuvant arthritis in the rat, hind limb thickness; type: in vivo; conditions: 0.1 mg/kg/day s.c. osmotic pump
Protocol: One test model is a rodent model of developing autoimmune adjuvant arthritis. An inhibition of the development of adjuvant arthritis is observed.
In one variante, Myobacterium Butyricum purchased from Difco Laboratories, Detroit, Michigan, was prepared in an emulsion with paraffin subliquidium PHHVI (Siegried Zofingen, Switzerland) at a concentration of 6 mg/ml. During ether anaesthesia a volume of 0.1 ml of this emulsion was injected with a 21 g 1-1/2 inch needle intracutaneously at the base of the tail of male Sprague-Dawley rats (ca 150-175 g). Arthritis occurred in 95% to 100% of the hind legs in the positive control animals. The hind limb (mid-tibial region) thickness was measured with a linear guage (Mitutoyo) coupled to an electronic digital readout (Mitutoyo).
100% of a control group developed adjuvant arthritis. The compounds of the invention are administered by means of a sub-cutaneously sustained osmotic pump, over 7 days or 14 days to groups of 5 animals. Progression of the arthritis and the inhibiting effect of a representative compound, compound B, at 0.1 mg/kg/day are as follows:-

[4] = test system: splenic lymphocytes forming lytic antibodies to the SRBC; experiment: Antibody producing cell development in the mouse (PFC test), plaque forming cells to SRBC; type: in vivo
Protocol: These methods permit the quantitation of the number of splenic lymphocytes forming lytic antibodies to the SRBC and the distinction between IgM and IgG producing cells.
The intravenous injection of SRBC (5 x 10⁷) in 0.2 ml i.v. served as the primary immunization antigen source in the mouse studies. The mice in these studies were female C57 black of ca 20 grams body weight. All animals were pretreated with the respective compounds for one day prior to the SRBC treatment and daily treated thereafter at 11.00 h for a total of 6 days. The spleens were removed for the determination of PFC numbers to the SRBC antigen.
The spleen cells were suspended in Hepes-buffered Balanced Salt Solution (HBSS), washed once, and resuspended in a volume adjusted according to the expected number of plaque forming cells. The direct quantitiation of IgM-PFC was performed by plaquing 0.1 ml of the diluted splenic cells with 0.025 ml of SRBC (30%), 0.3 ml Agar (0.5% in HBSS), and 0.025 ml complement (guinea pig serum) and plated on Petri dishes. An indirect method of IgG-PFC quantitation was performed with a monoclonal antibody to the IgM (1:4 dilution) plus an anti-gama polyspecific antiserum (1:800) to permit complement fixation. The splenic lymphocytes from each mouse spleen were plated to quantitate IgM- and IgG-PFC in duplicate. All plates were incubated for 4 hours at 37°C and then stored overnight in humidified chambers at 4°C. Plaques were counted by hand with the use of a plaque counter.

[5] = test system: immuno-responsiveness of effector lymphocytes to histoincompatible (allogenic) lymphocytes; experiment: Mixed lymphocyte reaction test in mice, 2nd variant (both strains treated, ex vivo 3H-thymidine incorporation); conditions: at least 7 days
Protocol: The compounds furthermore inhibit the immuno-responsiveness of effector lymphocytes to histoincompatible (allogenic) lymphocytes in a variante of the above two way MLR (mixed lymphocyte reaction) test.
Mice of two histo-incompatible strains (Balb/c and CBA) (6-8 weeks old) were once daily treated s.c. with a compound of the invention for at least 7 days. The spleens are removed 3 hours after the last drug administration. The MLR test is effected with 0.5 x 10⁶ spleen cells from Balb/c mice and 0.5 x 10⁶ spleen cells from CBA mice the latter having been irradiated with 2000 rad. The spleen cells of the Balb-c mice are incubated with the allogenic CBA-spleen cells for 4 days. Radioactive thymidine is added and after 16 hours the incorporation of ³H-thymidine in the DNA of the mouse spleen cells was measured.

[6] = test system: Local graft versus host (GvH); experiment: Local graft versus host (GvH) reaction in the rat, lymph node weight; type: in vivo; conditions: for Weight lymph node: control ca 33 mg; for Percentage Difference: versus control ca 33 mg
Protocol: Spleen cells (ca 1 x 10⁷) are taken from 6 week old Wistar/Furth/(W/F) rats and are injected into the left hind paw of female (F 344 x WF) F1 rats weighing about 100 g. The rats had been treated daily with the compound from 7 days before the injection and are treated daily for 3 days thereafter. The difference in weight between the left and right lymph nodes is taken as the parameter for evaluating the reaction.

[7] = test system: ornithine decarboxylase (ODC); experiment: Biosynthetic rate in the rat: ornithine decarboxylase activity in tissues after Complete Freund's adjuvant; type: in vivo; conditions: Freund's adjuvant treated rats
Protocol: The marker used in this study to determine the biosynthetic rate of the lymphoid and endocrine tissues was ornithine decarboxylase (ODC). ODC, the rate-limiting enzyme in polyamine biosynthesis, serves as a early marker of G₁ cell cycle progression of proliferating tissues and increased biosynthesis in secretory tissues, in response to trophic or stimulatory substances. There is a peak activity of ODC subsequent to stimulation in vivo within 4 hours - making this enzyme a useful intracellular marker for understanding the relationship between agonists and target tissue response. The ODC activity of lymphoid tissues appears to relate to a functional response to the immune system.
In a typical test method KFM male rats (150 - 175 g) were treated with the compound of the invention one day prior to the administration of Complete Freund's adjuvant in analogous manner to that described above. Administration of the compound was repeated once time per day afterwards. Two days later the animals were decapitated, the tissues removed and frozen in liquid nitrogen. The ODC activities (pmol/30 min./mg protein) are measured. The ODC activity was determined by measuring the liberation of 14CO₂ from L-(1-14C)-ornithine as described by Snyder et al Proc.Natl.Acad.Sci.60:1420, 1968.

[8] = Acute toxicity (LD50) in the mouse; conditions: in vivo; for LD50 at 168 h: iv, over 7 days, read-out: acute LD₅₀ (mouse) i.v.; for LD50 at 336 h: po, over 14 days, read-out: acute LD₅₀ (mouse) p.o.
Source text: (§1) Toxicity data for some of the comounds of the invention have been published. Such data may be determined by routine experimentation. TOXICITY DATA for representative compounds NTEL = No toxic effect level.

[9] = No toxic effect level (NTEL), repeated oral dosing in rats; conditions: rat, in vivo, p.o.
Source text: as §1

[10] = No toxic effect level (NTEL) / tolerability, repeated oral dosing in dogs; conditions: dog, in vivo, no toxic effect level, p.o.
Source text: as §1

Compound: NCCc1c[nH]c2ccc(O)cc12 [Compound 5-HT]
- pD₂ [log EC₅₀] [1]: 7.7
- efficacies ([1]; 5-HT = 100): 100

Compound: CN1C[C@@H](NS(=O)(=O)N(C)C)C[C@@H]2c3cccc4c3c(cn4C)C[C@H]21 [Compound B, 1,6-dimethyl-8α-(N,N-dimethylsulphamoylamino)-ergoline-I]
- ED50 ([2]; Rattus norvegicus, 4 h): 0.003 mg/kg
- Hind Limb Thickness (mm) ([3]; Day 0, 7 days dosing): 6.1 mm
- Hind Limb Thickness (mm) ([3]; Day 0, 14 days dosing): 6.0 mm
- Hind Limb Thickness (mm) ([3]; Day 3, 7 days dosing): 6.2 mm
- Hind Limb Thickness (mm) ([3]; Day 3, 14 days dosing): 6.2 mm
- Hind Limb Thickness (mm) ([3]; Day 6, 7 days dosing): 6.2 mm
- Hind Limb Thickness (mm) ([3]; Day 6, 14 days dosing): 6.2 mm
- Hind Limb Thickness (mm) ([3]; Day 9, 7 days dosing): 6.5 mm
- Hind Limb Thickness (mm) ([3]; Day 9, 14 days dosing): 6.7 mm
- Hind Limb Thickness (mm) ([3]; Day 12, 7 days dosing): 6.9 mm
- Hind Limb Thickness (mm) ([3]; Day 12, 14 days dosing): 7.7 mm
- Hind Limb Thickness (mm) ([3]; Day 15, 7 days dosing): 7.6 mm
- Hind Limb Thickness (mm) ([3]; Day 15, 14 days dosing): 7.8 mm
- Hind Limb Thickness (mm) ([3]; Day 18, 7 days dosing): 7.9 mm
- Hind Limb Thickness (mm) ([3]; Day 18, 14 days dosing): 7.9 mm
- Hind Limb Thickness (mm) ([3]; Day 21, 7 days dosing): 8.2 mm
- Hind Limb Thickness (mm) ([3]; Day 21, 14 days dosing): 8.2 mm

Compound: CCCN1C[C@@H](NS(=O)(=O)N(CC)CC)C[C@@H]2c3cccc4[nH]cc(c34)C[C@H]21 [Compound C, 6-n-propyl-8α-(N,N,-diethylsulphamoylamino)-ergoline-I]
- ED50 ([2]; lowering basal serum prolactin levels, male rat, after 4 hours): 0.001 mg/kg
- pD₂ [log EC₅₀] [1]: 6.9
- percent change from control at 0.01 mg/kg/day ([4]; Mus musculus, Splenic lymphocyte, po, Test B, 0.01 mg/kg/day p.o., read-out: IgM % of control): -49%
- percent change from control at 0.1 mg/kg/day ([4]; Mus musculus, Splenic lymphocyte, po, Test B, 0.1 mg/kg/day p.o., read-out: IgM % of control): -26%
- percent change from control at 1 mg/kg/day ([4]; Mus musculus, Splenic lymphocyte, po, Test B, 1 mg/kg/day p.o., read-out: IgM % of control): -1%
- IgM (PFC x 10^3 per spleen) ([4]; Test B, 0.01 mg/kg/day p.o.): 167.2 PFC x 10^3 per spleen
- IgM (PFC x 10^3 per spleen) ([4]; Test B, 0.1 mg/kg/day p.o.): 244.4 PFC x 10^3 per spleen
- IgM (PFC x 10^3 per spleen) ([4]; Test B, 1 mg/kg/day p.o.): 327.0 PFC x 10^3 per spleen
- reduction of IgM titre ([4]; combination: Cyclosporine 60 mg/kg/day p.o. and Compound C 0.1 mg/kg/day p.o.): 63%
- Change from control ([5]; 0.05 mg/kg s.c. once daily): -71%
- Change from control ([5]; 0.5 mg/kg s.c. once daily): -50%
- Change from control ([5]; 5 mg/kg s.c. once daily): -20%
- Weight lymph node ([6]; 0.001 mg/kg/day): 24 mg
- Percentage Difference ([6]; 0.001 mg/kg/day): -28%
- Weight lymph node ([6]; 0.01 mg/kg/day): 19 mg
- Percentage Difference ([6]; 0.01 mg/kg/day): -42%
- Weight lymph node ([6]; 0.1 mg/kg/day): 18 mg
- Percentage Difference ([6]; 0.1 mg/kg/day): -45%
- ODC activities, Adrenal Medulla ([7]; 0.01 mg/kg): 17.10 pmol/30 min./mg protein
- ODC activities, Anterior Pituitary ([7]; 0.01 mg/kg): 32.60 pmol/30 min./mg protein
- ODC activities, Bone Marrow ([7]; 0.01 mg/kg): 17.40 pmol/30 min./mg protein
- ODC activities, Lymph Nodes ([7]; 0.01 mg/kg): 43.10 pmol/30 min./mg protein
- ODC activities, Spleen ([7]; 0.01 mg/kg): 12.14 pmol/30 min./mg protein
- ODC activities, Thymus ([7]; 0.01 mg/kg): 98.80 pmol/30 min./mg protein
- ODC activities, Adrenal Medulla ([7]; 0.1 mg/kg): 180.0 pmol/30 min./mg protein
- ODC activities, Anterior Pituitary ([7]; 0.1 mg/kg): 33.70 pmol/30 min./mg protein
- ODC activities, Bone Marrow ([7]; 0.1 mg/kg): 45.80 pmol/30 min./mg protein
- ODC activities, Lymph Nodes ([7]; 0.1 mg/kg): 107.30 pmol/30 min./mg protein
- ODC activities, Spleen ([7]; 0.1 mg/kg): 34.62 pmol/30 min./mg protein
- ODC activities, Thymus ([7]; 0.1 mg/kg): 171.40 pmol/30 min./mg protein
- ODC activities, Adrenal Medulla ([7]; 0.5 mg/kg): 95.0 pmol/30 min./mg protein
- ODC activities, Anterior Pituitary ([7]; 0.5 mg/kg): 41.20 pmol/30 min./mg protein
- ODC activities, Bone Marrow ([7]; 0.5 mg/kg): 43.40 pmol/30 min./mg protein
- ODC activities, Lymph Nodes ([7]; 0.5 mg/kg): 103.90 pmol/30 min./mg protein
- ODC activities, Spleen ([7]; 0.5 mg/kg): 37.96 pmol/30 min./mg protein
- ODC activities, Thymus ([7]; 0.5 mg/kg): 177.0 pmol/30 min./mg protein
- LD50 at 168 h [8]: 45 mg/kg
- LD50 at 336 h [8]: 69 mg/kg
- NOAEL at 672 h ([9]; 4 weeks): 0.19 mg/kg/day
- NOAEL at 672 h ([10]; 4 weeks, read-out: NTEL (4 weeks) dogs): 0.2 mg/kg/day

Compound: CCN(CC)S(=O)(=O)N[C@H]1C[C@@H]2c3cccc4c3c(cn4CC)C[C@H]2N(C)C1 [Compound D, N,N-diethyl-Nʹ-[(8α)-1-ethyl-6-methyl-ergolin-8-yl]-sulfamide]
- LD50 at 168 h [8]: 44 mg/kg
- LD50 at 336 h [8]: 992 mg/kg
- NOAEL at 4368 h ([9]; 26 weeks): 5 to 17 mg/kg/day
- NOAEL at 4368 h ([10]; 26 weeks): 0.3 mg/kg/day

Compound: CCCN1C[C@H](CSC)C[C@@H]2c3cccc4[nH]cc(c34)C[C@H]21 [pergolide, 6-n-propyl-8α-methylmercaptomethyl-ergoline-I]
- pD₂ [log EC₅₀] [1]: 6.9
